Data reported in US20240115654A1, “INTRAVENOUS ADMINISTRATION OF ENGINEERED ANTIMICROBIAL AMPHIPHILIC PEPTIDES” (priority 2021, published 2024).
Values joined by “and” are separate entries in the source; they are usually repeats but may differ in a detail not shown here. Equal values may be shown once. Read-outs that look alike come from different tables or passages of the source. Peptide text beside a SMILES is read from it.

[1] = Cohort 1, 0.05 mg/kg IV infusion, Geometric Mean
[2] = Cohort 1, 0.05 mg/kg IV infusion, Max
[3] = Cohort 1, 0.05 mg/kg IV infusion, Mean
[4] = Cohort 1, 0.05 mg/kg IV infusion, Median
[5] = Cohort 1, 0.05 mg/kg IV infusion, Min
[6] = Cohort 1, 0.05 mg/kg IV infusion, cohort Geometric Mean
[7] = Cohort 1, 0.05 mg/kg IV infusion, cohort Mean
[8] = Cohort 1, 0.05 mg/kg IV infusion, cohort Median
[9] = Cohort 1, 0.05 mg/kg IV infusion, individual subject
[10] = Cohort 1, 0.05 mg/kg IV infusion, individual subjects
[11] = Cohort 3b and 4 section: over the 10-fold increase in dose
[12] = Cohort 3b and 4 section: over the […] increase in dose
[13] = Cohort 3b, […] IV infusion 2 hours, Max
[14] = Cohort 3b, […] IV infusion 2 hours, Min
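Note: phase 1 study in human subjects given one IV dose of the peptide, enrolled in sequential ascending-dose cohorts and randomized to peptide or placebo.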

CC(C)[C@H](NC(=O)[C@H](Cc1c[nH]c2ccccc12)NC(=O)[C@H](CCCNC(=N)N)NC(=O)[C@H](CCCNC(=N)N)NC(=O)[C@@H](NC(=O)[C@@H](NC(=O)[C@H](CCCNC(=N)N)NC(=O)[C@@H](NC(=O)[C@@H](NC(=O)[C@H](CCCNC(=N)N)NC(=O)[C@H](CCCNC(=N)N)NC(=O)[C@H](Cc1c[nH]c2ccccc12)NC(=O)[C@@H](NC(=O)[C@H](CCCNC(=N)N)NC(=O)[C@H](CCCNC(=N)N)NC(=O)[C@@H](NC(=O)[C@H](CCCNC(=N)N)NC(=O)[C@H](CCCNC(=N)N)NC(=O)[C@@H](NC(=O)[C@H](Cc1c[nH]c2ccccc12)NC(=O)[C@H](CCCNC(=N)N)NC(=O)[C@@H](N)CCCNC(=N)N)C(C)C)C(C)C)C(C)C)C(C)C)C(C)C)C(C)C)C(C)C)C(=O)N[C@@H](CCCNC(=N)N)C(=O)N[C@@H](CCCNC(=N)N)C(N)=O [SEQ ID NO: 1] (H-RRWVRRVRRVWRRVVRVVRRWVRR-NH2)
Plasma Concentration by Nominal Time from Start of Infusion, Mean (Cohort 1, 0.05 mg/kg IV 1-hr infusion, 49 h, cohort mean): 0.00 ng/mL
Plasma Concentration by Nominal Time from Start of Infusion (Cohort 1, 0.05 mg/kg IV 1 hr infusion, 0.0 h, individual subjects): 0.00 ng/mL
Plasma Concentration by Nominal Time from Start of Infusion (Cohort 1, 0.05 mg/kg IV 1 hr infusion, 9.0 h, individual subjects): 63.2 ng/mL
Plasma Concentration by Nominal Time from Start of Infusion (Cohort 1, 0.05 mg/kg IV 1 hr infusion, 13 h, individual subjects): 32.9 ng/mL
Plasma Concentration by Nominal Time from Start of Infusion (Cohort 1, 0.05 mg/kg IV 1 hr infusion, 21 h, individual subjects): 0.00 ng/mL
Plasma Concentration by Nominal Time from Start of Infusion (Cohort 1, 0.05 mg/kg IV 1 hr infusion, 25 h, individual subjects): 0.00 ng/mL
Plasma Concentration by Nominal Time from Start of Infusion (Cohort 1, 0.05 mg/kg IV 1 hr infusion, 37 h, individual subjects): 0.00 ng/mL
Plasma Concentration by Nominal Time from Start of Infusion, Mean (Cohort 1, 0.05 mg/kg IV 1 hr infusion, 49 h, cohort mean N 6): 0.00 ng/mL
Plasma Concentration by Nominal Time from Start of Infusion (Cohort 1, 0.05 mg/kg IV 1 hr infusion, 49 h, individual subjects): 0.00 ng/mL
AUCextrap [1]: 8.36%
CL/F [1]: 0.522 mL/min/kg
Tlast [1]: 24 h
λz [1]: 0.0946 h⁻¹
AUC0-24 [2]: 1610 ng·h/mL
AUC(0-inf) [2]: 1820 ng·h/mL
AUC(0-t) [2]: 1720 ng·h/mL
AUCextrap [2]: 12.1%
CL/F [2]: 0.595 mL/min/kg
Cmax [2]: 341 ng/mL
Tlast [2]: 37 h
t1/2 [2]: 8.59 h
λz [2]: 0.105 h⁻¹
AUCextrap [3]: 8.87%
CL/F [3]: 0.525 mL/min/kg
Tlast [3]: 25 h
λz [3]: 0.0950 h⁻¹
AUCextrap [4]: 8.12%
Tlast [4]: 25 h
λz [4]: 0.0951 h⁻¹
AUC0-24 [5]: 619 ng·h/mL
AUC(0-t) [5]: 515 ng·h/mL
AUCextrap [5]: 4.54%
CL/F [5]: 0.457 mL/min/kg
Cmax [5]: 170 ng/mL
Tlast [5]: 13 h
t1/2 [5]: 6.62 h
λz [5]: 0.0807 h⁻¹
AUCextrap [6]: 8.36%
CL/F [6]: 0.522 mL/min/kg
Tlast [6]: 24 h
λz [6]: 0.0946 h⁻¹
AUCextrap [7]: 8.87%
CL/F [7]: 0.525 mL/min/kg
Tlast [7]: 25 h
λz [7]: 0.0950 h⁻¹
AUCextrap [8]: 8.12%
Tlast [8]: 25 h
λz [8]: 0.0951 h⁻¹
AUC(0-inf) [9]: 1490 ng·h/mL and 1800 ng·h/mL and 1820 ng·h/mL
CL/F [9]: 0.595 mL/min/kg and 0.562 mL/min/kg
AUC(0-inf) [10]: 1490 ng·h/mL and 1800 ng·h/mL and 1820 ng·h/mL
Tlast [10]: 25 h (4×) and 13 h and 37 h
CL/F (Cohort 2, […] IV infusion, Max): 1.44 mL/min/kg
t1/2 (Cohort 2, […] IV infusion, Max): 15.5 h
CL/F (Cohort 2, […] IV infusion, Mean): 0.878 mL/min/kg
CL/F (Cohort 2, […] IV infusion, Median): 0.82 mL/min/kg
CL/F (Cohort 2, […] IV infusion, Min): 0.322 mL/min/kg
t1/2 (Cohort 2, […] IV infusion, Min): 7.51 h
CL/F (Cohort 2, […] IV infusion, cohort Mean): 0.878 mL/min/kg
CL/F (Cohort 2, […] IV infusion, cohort Median): 0.82 mL/min/kg
CL/F (Cohort 3, […] IV infusion, Geometric Mean): 0.91 mL/min/kg
CL/F (Cohort 3, […] IV infusion, Max): 4.3 mL/min/kg
t1/2 (Cohort 3, […] IV infusion, Max): 21.8 h
CL/F (Cohort 3, […] IV infusion, Mean): 1.4 mL/min/kg
CL/F (Cohort 3, […] IV infusion, Min): 0.295 mL/min/kg
t1/2 (Cohort 3, […] IV infusion, Min): 5.80 h
CL/F (Cohort 3, […] IV infusion, cohort Geometric Mean): 0.91 mL/min/kg
CL/F (Cohort 3, […] IV infusion, cohort Mean): 1.4 mL/min/kg
increase of AUC0-t [11]: 6.4 fold
increase of mean AUC0-24 [11]: 5.8 fold
increase of mean Cmax [11]: 7.1 fold
increase of AUC0-t [12]: 4.2 fold
increase of mean AUC0-24 [12]: 3.7 fold
increase of mean Cmax [12]: 3.7 fold
CL/F (Cohort 3b, […] IV infusion 2 hours, Geometric Mean): 0.748 mL/min/kg
CL/F [13]: 1.36 mL/min/kg
t1/2 [13]: 17.5 h
CL/F (Cohort 3b, […] IV infusion 2 hours, Mean): 0.795 mL/min/kg
CL/F (Cohort 3b, […] IV infusion 2 hours, Median): 0.76 mL/min/kg
CL/F [14]: 0.415 mL/min/kg
t1/2 [14]: 9.72 h
CL/F (Cohort 3b, […] IV, infusion 2 hours, cohort Geometric Mean): 0.748 mL/min/kg
CL/F (Cohort 3b, […] IV, infusion 2 hours, cohort Mean): 0.795 mL/min/kg
CL/F (Cohort 3b, […] IV, infusion 2 hours, cohort Median): 0.76 mL/min/kg
Plasma Concentration by Nominal Time from Start of Infusion, Mean (Cohort 4, 0.5 mg/kg IV 2-hr infusion, 0.0 h, cohort mean): 0.00 ng/mL
AUCextrap (Cohort 4, 0.5 mg/kg IV infusion 2 hours, Geometric Mean): 7.38%
AUC0-24 (Cohort 4, 0.5 mg/kg IV infusion 2 hours, Max): 10400 ng·h/mL
